From patent EP2435433B1, “(DIHYDRO)IMIDAZOISO[5,1-A]QUINOLINES AS FSH RECEPTOR AGONISTS FOR THE TREATMENT OF FERTILITY DISORDERS” (Merck Sharp & Dohme B.V., priority 2009, dated 2010) come the findings set out here.

Read-outs that look alike come from different tables or passages of the source.

This assay has as its target T1, human FSH receptor (Homo sapiens, UniProt P23945).
T1 construct: expressed in transfected cells; host or cells: Chinese Hamster Ovary (CHO) cells, stably transfected, cotransfected with CRE/promotor-firefly luciferase reporter
T1 sequence (P23945 18-695): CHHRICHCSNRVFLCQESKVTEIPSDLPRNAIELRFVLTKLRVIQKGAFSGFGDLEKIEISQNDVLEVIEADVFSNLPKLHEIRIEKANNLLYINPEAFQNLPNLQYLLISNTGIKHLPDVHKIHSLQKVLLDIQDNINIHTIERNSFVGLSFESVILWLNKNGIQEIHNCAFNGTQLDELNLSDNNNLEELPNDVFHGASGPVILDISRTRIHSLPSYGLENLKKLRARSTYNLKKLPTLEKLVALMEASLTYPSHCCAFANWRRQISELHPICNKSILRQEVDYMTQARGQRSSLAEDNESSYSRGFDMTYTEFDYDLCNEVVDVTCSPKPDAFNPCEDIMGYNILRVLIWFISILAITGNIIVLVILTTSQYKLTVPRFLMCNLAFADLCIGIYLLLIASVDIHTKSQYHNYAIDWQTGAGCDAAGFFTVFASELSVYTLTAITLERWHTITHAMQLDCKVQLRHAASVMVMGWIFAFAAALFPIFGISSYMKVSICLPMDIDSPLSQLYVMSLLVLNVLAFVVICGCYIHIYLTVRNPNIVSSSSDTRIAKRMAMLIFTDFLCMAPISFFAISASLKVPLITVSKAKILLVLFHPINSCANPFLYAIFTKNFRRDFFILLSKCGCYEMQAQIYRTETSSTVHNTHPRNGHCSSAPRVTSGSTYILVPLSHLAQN
Put plainly: Agonistic activity of compounds at the human FSH receptor expressed in CHO cells, CRE/luciferase reporter (hFSHRago (CHO luc)). The class given is cell-based. The text has this:
The term EC50 means the concentration of the test compound that elicits half-maximal (50 %) stimulation compared to the compound's maximally attainable effect. The values can be determined e.g. in a cell line transfected with a FSH receptor gene and cotransfected with a cAMP responsive element/promoter directing the expression of a reporter gene. Values can be determined using a software program such as MathIQ (version 2.0, ID Business Solutions Limited).
Agonistic activity of the compounds at the human FSH receptor was determined in Chinese Hamster Ovary (CHO) cells stably transfected with the human FSH receptor and cotransfected with a cAMP responsive element (CRE)/promotor directing the expression of a firefly luciferase reporter gene. Binding of the compounds to the Gs protein-coupled FSH receptor will result in an increase of cAMP, which in turn will induce an increased transactivation of the luciferase reporter. Cells (7,500 cells/well of a 384 well plate) were incubated in Dulbecco' minimal essential F12 modified medium (Invitrogen), supplemented with 1 µg/ml bovine insulin, 5 µg/ml human apo-transferrin, 80 U/ml penicillin G and 80 µg/ml streptomycin with the test compounds (concentration between 0.0316 nM and 10.0 µM) in duplicate in a humidified atmosphere (95%) at 5-7% CO2 and 37°C. The final concentration of DMSO was 1%. After 4 hours of incubation, plates were allowed to adjust to room temperature for 1 hour. Then, Luclite (PerkinElmer) solution was added to the wells and cells were allowed to lyse for at least 1 hour at room temperature. Subsequently, luciferase activity was measured in a luminescence counter. The signal is expressed as counts per second (cps). The EC50 (concentration of the test compound that elicits half-maximal (50 %) luciferase stimulation compared to the compound's maximally attainable effect) and efficacy values (maximal effect of the test compound as percentage of the maximal effect of recombinant human FSH) of the compounds were determined using the software program MathIQ (version 2.0, ID Business Solutions Limited). EC50 data are indicated at the synthesis examples.
Background: A reporter such as luciferase makes a cellular process visible.

[1] abbreviates: CHO cells stably transfected with the human FSH receptor and CRE/firefly luciferase reporter, 4 hours of incubation, half-maximal stimulation relative to the compound's own maximal effect, read-out: hFSHRago (CHO luc) EC50.

A word on the EC50: it is the concentration at which the effect is half-maximal. Take `COc1cc2c(cc1-c1cccnc1)-c1c(C(C)(C)C)nc(C(=O)N(C)C(C)(C)C)n1CC2` [Example 44e, 1-tert-Butyl-8-methoxy-9-pyridin-3-yl-5,6-dihydro-imidazo[5,1-a]isoquinoline-3-carboxylic acid tert-butyl-methyl-amide]: the EC50 under setting [1] is 33 nM.

In the case of `COc1cc2c(cc1-c1cccc(C(F)(F)F)c1)-c1c(-c3cccs3)nc(C(=O)N(C)C(C)(C)C)n1CC2` [Example 2e, 8-Methoxy-1-thiophen-2-yl-9-(3-trifluoromethyl-phenyl)-5,6-dihydro-imidazo[5,1-a]isoquinoline-3-carboxylic acid tert-butyl-methyl-amide], under setting [1], the EC50 turned out to be 65 nM. On the same count and under the same terms, the same measure for `COCOc1cc2c(cc1OC)CCn1c(C(=O)N(C)C(C)(C)C)nc(-c3cccs3)c1-2` [Example 35b, 8-Methoxy-9-methoxymethoxy-1-thiophen-2-yl-5,6-dihydro-imidazo[5,1-a]isoquinoline-3-carboxylic acid tert-butyl-methyl-amide]: 19 nM. Still for that read-out and setting: the same measure for `COc1cc2c(cc1-c1cccc(NC(C)=O)c1)-c1c(-c3cccs3)nc(C(=O)N(C)C(C)(C)C)n1CC2` [Example 2f, 9-(3-Acetylamino-phenyl)-8-methoxy-1-thiophen-2-yl-5,6-dihydro-imidazo[5,1-a]iso-quinoline-3-carboxylic acid tert-butyl-methyl-amide]: 1 nM; for `COc1cc2c(cc1-c1ccccn1)-c1c(-c3cccs3)nc(C(=O)N(C)C(C)(C)C)n1CC2` [Example 2b, 8-Methoxy-9-pyridin-2-yl-1-thiophen-2-yl-5,6-dihydro-imidazo[5,1-a]isoquinoline-3-carboxylic acid tert-butyl-methyl-amide]: 13 nM. Same read-out and setting: the same measure for `COc1cc2c(cc1Br)-c1c(-c3cccs3)nc(C(=O)N(C)C(C)(C)C)n1CC2` [Example 1j, 9-Bromo-8-methoxy-1-thiophen-2-yl-5,6-dihydro-imidazo[5,1-a]isoquinoline-3-carboxylic acid tert-butyl-methyl-amide]: 36 nM; for `COc1cc2c(cc1-c1cccc(N)c1)-c1c(-c3cccs3)nc(C(=O)N(C)C(C)(C)C)n1CC2` [Example 2k, 9-(3-Amino-phenyl)-8-methoxy-1-thiophen-2-yl-5,6-dihydro-imidazo[5,1-a]isoquinoline-3-carboxylic acid tert-butyl-methyl-amide]: 8 nM. Consider `COc1cc2c(cc1OC(C)C)-c1c(-c3cccs3)nc(C(=O)N3CC4CC(C3)CN(C(=O)C3CCC3)C4)n1CC2` [Example 29d, (7-Cyclobutanecarbonyl-3,7-diaza-bicyclo[3.3.1]non-3-yl)-(9-isopropoxy-8-methoxy-1-thiophen-2-yl-5,6-dihydro-imidazo[5,1-a]isoquinolin-3-yl)-methanone], for which the EC50 under setting [1] is 5 nM.

For `CCOc1ccc2c(c1)CCn1c(C(=O)N(C)C(C)(C)C)nc(-c3cccs3)c1-2` [Example 40c, 8-Ethoxy-1-thiophen-2-yl-5,6-dihydro-imidazo[5,1-a]isoquinoline-3-carboxylic acid tert-butyl-methyl-amide], the EC50 under setting [1] was 417 nM.

With `COc1cc2c(cc1-c1cccc(F)n1)-c1c(-c3cccs3)nc(C(=O)N(C)C(C)(C)C)n1CC2` [Example 2c, 9-(6-Fluoro-pyrjdin-2-yl)-8-methoxy-1-thiophen-2-yl-5,6-dihydro-imidazo[5,1-a]iso-quinoline-3-carboxylic acid tert-butyl-methyl-amide], the EC50 under setting [1] was found to be 3 nM. Consider `COc1cc2c(cc1-c1cccc(C(=O)N(C)C)c1)-c1c(-c3cccs3)nc(C(=O)N(C)C(C)(C)C)n1CC2` [Example 2n, 9-(3-Dimethylcarbamoyl-phenyl)-8-methoxy-1-thiophen-2-yl-5,6-dihydro-imidazo[5,1-a]iso-quinoline-3-carboxylic acid tert-butyl-methyl-amide], for which the EC50 under setting [1] turned out to be 11 nM.

On to `CCC1CCCN1C(=O)c1nc(-c2cccs2)c2n1CCc1cc(OC)c(OC(C)C)cc1-2` (centres unmarked) [Example 23, (2-Ethyl-pyrrolidin-1-yl)-(9-isopropoxy-8-methoxy-1-thiophen-2-yl-5,6-dihydro-imidazo[5,1-a]isoquinolin-3-yl)-methanone], for which the EC50 under setting [1] turned out to be 63 nM.

For `COc1cc2c(cc1Oc1ccccc1)-c1c(-c3cccs3)nc(C(=O)N(C)C(C)(C)C)n1CC2` [Example 42b, 8-Methoxy-9-phenoxy-1-thiophen-2-yl-5,6-dihydro-imidazo[5,1-a]isoquinoline-3-carboxylic acid tert-butyl-methyl-amide], the EC50 under setting [1] is 128 nM.

For the molecule `CCN(C(=O)c1nc(-c2cccs2)c2n1CCc1cc(OC)c(OCCO)cc1-2)C(C)(C)C` [Example 34b, 9-(2-Hydroxy-ethoxy)-8-methoxy-1-thiophen-2-yl-5,6-dihydro-imidazo[5,1-a]isoquinoline-3-carboxylic acid tert-butyl-ethyl-amide], under setting [1], the EC50 was 3 nM.

As for `COc1cc2c(cc1OC(C)C)-c1c(-c3cncs3)nc(C(=O)N(C)C(C)(C)C)n1CC2` [Example 47e, 9-Isopropoxy-8-methoxy-1-thiazol-5-yl-5,6-dihydro-imidazo[5,1-a]isoquinoline-3-carboxylic acid tert-butyl-methyl-amide], the EC50 under setting [1] came to 6 nM. For the molecule `COc1cc2c(cc1-c1cccnc1)-c1c(-c3cccs3)nc(C(=O)N(C)C(C)(C)C)n1CC2` [Example 2a], the EC50 was found to be 1 nM. Consider `COc1cc2c(cc1NC(=O)c1cccnc1)-c1c(-c3cccs3)nc(C(=O)N(C)C(C)(C)C)n1CC2` [Example 9, 8-Methoxy-9-[(pyridine-3-carbonyl)-amino]-1-thiophen-2-yl-5,6-dihydro-imidazo[5,1-a]isoquinoline-3-carboxylic acid tert-buyl-methyl-amide], for which, under setting [1], the EC50 was determined as 224 nM. Turning to `COc1cc2c(cc1-c1cccc(N3CCOCC3)n1)-c1c(-c3cccs3)nc(C(=O)N(C)C(C)(C)C)n1CC2` [Example 2d, 8-Methoxy-9-(6-morpholin-4-yl-pyridin-2-yl)-1-thiophen-2-yl-5,6-dihydro-imidazo[5,1-a]isoquinoline-3-carboxylic acid tert-butyl-methyl-amide], the EC50 under setting [1] turned out to be 100 nM.

Regarding `COc1cc2c(cc1NC(=O)c1csnn1)-c1c(-c3cccs3)nc(C(=O)N(C)C(C)(C)C)n1CC2` [Example 12, 8-Methoxy-9-[([1,2,3]thiadiazole-4-carbonyl)-amino]-1-thiophen-2-yl-5,6-dihydro-imidazo[5,1-a]isoquinoline-3-carboxylic acid tert-butyl-methyl-amide], under setting [1], the EC50 is 15 nM. Same read-out and setting: the same measure for `COc1cc2c(cc1OC)-c1c(-c3cccs3)nc(C(=O)N(CCO)C(C)C)n1CC2` [Example 25, 8,9-Dimethoxy-1-thiophen-2-yl-5,6-dihydro-imidazo[5,1-a]isoquinoline-3-carboxylic acid (2-hydroxy-ethyl)-isopropyl-amide]: 138 nM.

As for `COc1cc2c(cc1-c1cccc(N(C)C)c1)-c1c(-c3cccs3)nc(C(=O)N(C)C(C)(C)C)n1CC2` [Example 2l, 9-(3-Dimethylamino-phenyl)-8-methoxy-1-thiophen-2-yl-5,6-dihydro-imidazo[5,1-a]iso-quinoline-3-carboxylic acid tert-butyl-methyl-amide], the EC50 under setting [1] turned out to be 9 nM. Still for that read-out and setting: the same measure for `C=Cc1cc2c(cc1OC)CCn1c(C(=O)N(C)C(C)(C)C)nc(-c3cccs3)c1-2` [Example 3b, 8-Methoxy-1-thiophen-2-yl-9-vinyl-5,6-dihydro-imidazo[5,1-a]isoquinoline-3-carboxylic acid tert-butyl-methyl-amide]: 28 nM; for `CC(C)Cc1ccc2c(c1)-c1c(-c3cccs3)nc(C(=O)N(C)C(C)(C)C)n1CC2` [Example 20b, 9-Isobutyl-1-thiophen-2-yl-5,6-dihydro-imidazo[5,1-a]isoquinoline-3-carboxylic acid tert-butyl-methyl-amide]: 407 nM.
